Reference: patent US9510598B2, “Nitrogen-containing heterocyclic compounds for plant disease control” (BAYER CROPSCIENCE AG, priority 2012, dated 2016)

conditions: Table 2, formula (II); method [a]: pH 2.7, 0.1% formic acid in water / acetonitrile gradient

Compound	Log P
COC1(C(=O)O)CC(c2cc(Cl)c3ncc(Br)cc3c2)=NO1 (stereo not drawn) [II-89]	2.19[a]
C#Cc1cnc2ccc(C3=NOC(C)(C(=O)O)C3)cc2c1 (racemic) [II-10]	1.71[a]
C#Cc1cnc2c(C)cc(C3=NOC(C)(C(=O)OC)C3)cc2c1 (stereo not drawn) [II-74]	3.07[a]
O=C(O)C1(C(F)(F)F)CC(c2cc3cc(Br)cnc3c(F)c2F)=NO1 (racemic) [II-13]	2.01[a]
CCOC(=O)C1(C)ON=C(c2ccc3ncc(Br)cc3c2)C1CC (stereo not drawn) [II-42]	3.74[a]
COC(=O)C1(C)CC(c2ccc3ncc(C#C[Si](C)(C)C)cc3c2)=NO1 (stereo not drawn) [II-26]	4.31[a]
COC(=O)C1(c2ccccc2)CC(c2ccc3ncc(Br)cc3c2)=NO1 (racemic) [II-17]	2.69[a]
C#Cc1cnc2ccc(C3=NOC(CC)(C(=O)O)C3)cc2c1 (stereo not drawn) [II-69]	2.05[a]
O=C(O)C1(c2ccccc2)CC(c2ccc3ncc(Br)cc3c2)=NO1 (racemic) [II-12]	2.76[a]
C#Cc1cc2cc(C3=NOC(C)(C(=O)O)C3)ccc2nc1Cl (stereo not drawn) [II-55]	2.24[a]
CCOC(=O)C1(CC)CC(c2ccc3ncc(C#C[Si](C)(C)C)cc3c2)=NO1 (stereo not drawn) [II-67]	5.19[a]
C#Cc1cnc2c(C)cc(C3=NOC(C)(C(=O)O)C3)cc2c1 (stereo not drawn) [II-81]	2.30[a]

More lines, now with the values ahead:

Log P	Compound
2.01[a]	CSC1(C(=O)O)CC(c2ccc3ncc(Br)cc3c2)=NO1 (stereo not drawn) [II-88]
1.94[a]	CC1(C(=O)O)CC(c2ccc3ncc(Br)cc3c2)=NO1 (racemic) [II-03]
2.18[a]	COC(=O)C1(C(C)O)CC(c2ccc3ncc(Br)cc3c2)=NO1 (mixture of isomers) [II-19]
2.94[a]	COC(=O)C1(C)ON=C(c2ccc3ncc(Br)cc3c2)C1C (mixture of isomers) [II-15]
2.19[a]	O=C(O)C1(CBr)CC(c2ccc3ncc(Br)cc3c2)=NO1 (racemic) [II-11]
3.23[a]	COC(=O)C12CCCC1C(c1ccc3ncc(Br)cc3c1)=NO2 (stereo not drawn) [II-31]
1.85[a]	O=C(O)C1(C(F)(F)F)CC(c2ccc3ncc(Br)cc3c2)=NO1 (racemic) [II-08]
3.05[a]	COC(=O)C1(SC)CC(c2ccc3ncc(Br)cc3c2)=NO1 (stereo not drawn) [II-84]
1.94[a]	O=C(O)C1(CF)CC(c2ccc3ncc(Br)cc3c2)=NO1 (stereo not drawn) [II-36]
3.4[a]	COC(=O)C1(C(F)(F)F)CC(c2ccc3ncc(Br)cc3c2)=NO1 (racemic) [II-14]
3.53[a]	CCOC(=O)C1(CC)CC(c2ccc3ncc(Br)cc3c2)=NO1 (stereo not drawn) [II-63]
3.44[a]	C=C(C)C1(C(=O)OC)CC(c2ccc3ncc(Br)cc3c2)=NO1 (stereo not drawn) [II-72]
1.99[a]	COC(=O)C1(CO)CC(c2ccc3ncc(Br)cc3c2)=NO1 (stereo not drawn) [II-52]
3.29[a]	COC(=O)C1(OC)CC(c2ccc3ncc(Br)cc3c2)=NO1 (stereo not drawn) [II-25]
2.69[a]	COC(=O)C1(C)CC(c2ccc3ncc(Br)cc3c2)=NO1 (stereo not drawn) [II-33]
3.74[a]	COC(=O)C1(C)CC(c2ccc3nc(Cl)c(Br)cc3c2)=NO1 (stereo not drawn) [II-44]
3.68[a]	C=C(Cl)C1(C(=O)OC)CC(c2ccc3ncc(Br)cc3c2)=NO1 (stereo not drawn) [II-70]

same assay, conditions: Table 3, formula (V); method [a]: pH 2.7, 0.1% formic acid in water / acetonitrile gradient

Log P	Compound
2.61[a]	Cc1cc(C=NO)cc2cc(Br)cnc12 [V-16]
1.78[a]	ON=Cc1ccc2ncc(Cl)cc2c1 [V-11]
2.21[a]	C#Cc1cnc2c(C)cc(C=NO)cc2c1 [V-15]
3.37[a]	Cc1cc(C(Cl)=NO)cc2cc(Br)cnc12 [V-19]
2.04[a]	ON=C(Cl)c1cc2cccnc2c(F)c1F [V-02]
2.63[a]	ON=C(Cl)c1ccc2ncc(I)cc2c1 [V-08]
2.63[a]	ON=C(Cl)c1cc2cc(Br)cnc2cc1F [V-06]
2.21[a]	ON=Cc1cc2cc(Br)cnc2cc1F [V-05]
2.92[a]	ON=C(Cl)c1cc2cc(Br)cnc2c(F)c1F [V-03]
1.48[a]	ON=Cc1cc2cccnc2c(F)c1F [V-01]
